The NIST ThermoML archive (doi:10.1021/acs.jced.7b00201)

Test: xn = mol fraction of the nth substance listed
Conditions: 100 kPa, Liquid; for viscosity: Falling or rolling sphere viscometry; for mass density: Vibrating tube method

OCC1CC1 [cyclopropylmethanol] + CCCCC1CCCCC1
Conditions	mass density [kg/m3]	viscosity [mPa·s]
293.15 K, x1 = 0.1039	803.82	1.319
293.15 K, x1 = 0.2031	809.39	1.383
293.15 K, x1 = 0.3022	815.9	1.475
293.15 K, x1 = 0.3997	823.34	1.602
293.15 K, x1 = 0.4993	832.12	1.778
293.15 K, x1 = 0.5994	842.55	2.006
293.15 K, x1 = 0.7	855.1	2.299
293.15 K, x1 = 0.797	869.68	2.67
293.15 K, x1 = 0.9004	889.05	3.23
293.15 K, x1 = 1	912.99	4.029
298.15 K, x1 = 0.1039	800.02	1.212
298.15 K, x1 = 0.2031	805.52	1.265
298.15 K, x1 = 0.3022	812	1.343
298.15 K, x1 = 0.3997	819.39	1.451
298.15 K, x1 = 0.4993	828.15	1.601
298.15 K, x1 = 0.5994	838.56	1.79
298.15 K, x1 = 0.7	851.09	2.038
298.15 K, x1 = 0.797	865.66	2.355
298.15 K, x1 = 0.9004	885.02	2.821
298.15 K, x1 = 1	908.94	3.485
303.15 K, x1 = 0.1039	796.16	1.117
303.15 K, x1 = 0.2031	801.61	1.162
303.15 K, x1 = 0.3022	808.04	1.228
303.15 K, x1 = 0.3997	815.4	1.319
303.15 K, x1 = 0.4993	824.14	1.448
303.15 K, x1 = 0.5994	834.52	1.607
303.15 K, x1 = 0.7	847.04	1.817
303.15 K, x1 = 0.797	861.6	2.084
303.15 K, x1 = 0.9004	880.95	2.48
303.15 K, x1 = 1	904.85	3.037
308.15 K, x1 = 0.1039	792.28	1.034
308.15 K, x1 = 0.2031	797.68	1.072
308.15 K, x1 = 0.3022	804.06	1.128
308.15 K, x1 = 0.3997	811.39	1.205
308.15 K, x1 = 0.4993	820.09	1.315
308.15 K, x1 = 0.5994	830.45	1.45
308.15 K, x1 = 0.7	842.95	1.628
308.15 K, x1 = 0.797	857.5	1.855
308.15 K, x1 = 0.9004	876.84	2.192
308.15 K, x1 = 1	900.74	2.661
313.15 K, x1 = 0.1039	788.38	0.96
313.15 K, x1 = 0.2031	793.72	0.984
313.15 K, x1 = 0.3022	800.06	1.04
313.15 K, x1 = 0.3997	807.34	1.106
313.15 K, x1 = 0.4993	816.02	1.198
313.15 K, x1 = 0.5994	826.34	1.314
313.15 K, x1 = 0.7	838.82	1.466
313.15 K, x1 = 0.797	853.35	1.659
313.15 K, x1 = 0.9004	872.69	1.947
313.15 K, x1 = 1	896.58	2.344
318.15 K, x1 = 0.1039	784.47	0.895
318.15 K, x1 = 0.2031	789.74	0.919
318.15 K, x1 = 0.3022	796.03	0.963
318.15 K, x1 = 0.3997	803.27	1.019
318.15 K, x1 = 0.4993	811.9	1.098
318.15 K, x1 = 0.5994	822.19	1.197
318.15 K, x1 = 0.7	834.65	1.327
318.15 K, x1 = 0.797	849.17	1.491
318.15 K, x1 = 0.9004	868.5	1.735
318.15 K, x1 = 1	892.38	2.074
323.15 K, x1 = 0.1039	780.53	0.837
323.15 K, x1 = 0.2031	785.74	0.861
323.15 K, x1 = 0.3022	791.97	0.894
323.15 K, x1 = 0.3997	799.16	0.941
323.15 K, x1 = 0.4993	807.75	1.01
323.15 K, x1 = 0.5994	818.01	1.094
323.15 K, x1 = 0.7	830.44	1.205
323.15 K, x1 = 0.797	844.94	1.345
323.15 K, x1 = 0.9004	864.26	1.555
323.15 K, x1 = 1	888.13	1.843
328.15 K, x1 = 0.1039	776.57	0.784
328.15 K, x1 = 0.2031	781.71	0.808
328.15 K, x1 = 0.3022	787.87	0.832
328.15 K, x1 = 0.3997	795.01	0.873
328.15 K, x1 = 0.4993	803.56	0.931
328.15 K, x1 = 0.5994	813.78	1.003
328.15 K, x1 = 0.7	826.18	1.098
328.15 K, x1 = 0.797	840.66	1.22
328.15 K, x1 = 0.9004	859.97	1.399
328.15 K, x1 = 1	883.84	1.646
333.15 K, x1 = 0.1039	772.6	0.736
333.15 K, x1 = 0.2031	777.65	0.758
333.15 K, x1 = 0.3022	783.75	0.777
333.15 K, x1 = 0.3997	790.83	0.812
333.15 K, x1 = 0.4993	799.33	0.862
333.15 K, x1 = 0.5994	809.5	0.923
333.15 K, x1 = 0.7	821.87	1.005
333.15 K, x1 = 0.797	836.33	1.109
333.15 K, x1 = 0.9004	855.62	1.264
333.15 K, x1 = 1	879.49	1.476
338.15 K, x1 = 0.1039	768.6	0.697
338.15 K, x1 = 0.2031	773.56	0.718
338.15 K, x1 = 0.3022	779.59	0.733
338.15 K, x1 = 0.3997	786.61	0.767
338.15 K, x1 = 0.4993	795.05	0.801
338.15 K, x1 = 0.5994	805.18	0.853
338.15 K, x1 = 0.7	817.51	0.923
338.15 K, x1 = 0.797	831.94	1.012
338.15 K, x1 = 0.9004	851.21	1.146
338.15 K, x1 = 1	875.07	1.328
343.15 K, x1 = 0.1039	764.58	0.656
343.15 K, x1 = 0.2031	769.4	0.668
343.15 K, x1 = 0.3022	775.39	0.684
343.15 K, x1 = 0.3997	782.35	0.709
343.15 K, x1 = 0.4993	790.73	0.746
343.15 K, x1 = 0.5994	800.8	0.79
343.15 K, x1 = 0.7	813.09	0.85
343.15 K, x1 = 0.797	827.49	0.928
343.15 K, x1 = 0.9004	846.74	1.043
343.15 K, x1 = 1	870.62	1.201
